Patent US8975411B2, “Therapeutic agent for neurological diseases” (Neugen Pharma Inc., priority 2010, dated 2015)
pEC50: −log10 of the molar value. Values after ≈ are worked out from the molar mass of the structure shown.

Experiments:
[1] = Evaluation of solubility in the 1st fluid (pH1.2) of the Japanese pharmacopeia; format: physicochemical; conditions: 1st fluid (pH 1.2) of the Japanese Pharmacopeia, pH 1.2, simulated gastric fluid, thermodynamic from solid, 25° C.
Procedure: Using the same compounds as in Experimental Example 1, solubility in the 1st fluid (pH1.2) of the Japanese pharmacopeia was measured. The 1st fluid of the Japanese Pharmacopeia was prepared by dissolving sodium chloride in hydrochloric acid (7.0 mL) and water and adjusting the total amount to 1000 mL. The 1st fluid of the Japanese Pharmacopeia (0.6 mL) was poured in a tube and a compound was added until a precipitate was observed. Then, the tube was shaken at 25° C. for 24 hours (200 rotations/minute) to obtain a compound solution. The compound solution was added to a 96-well plate to which a 0.22 μm filter (manufactured by Millipore) was set and centrifugally filtrated (2700 rotations/minute, 10 minutes). Thereafter, the concentration of the compound in the filtrate was obtained from the peak area obtained by HPLC analysis. The solution for a calibration curve was prepared by dissolving a compound in DMSO.
(§1) HPLC analysis conditions will be described below.
Column: TSKgel ODS-80Tm, 4.6×150 mm (manufactured by Tohso Corporation)
Column temperature: 40° C.
Mobile phase: 20 mM sodium 1-decanesulfonate, 40 mM phosphoric acid, 0.2% trimethylamine/acetonitrile

[2] = tested on: ALS-SOD1^H46R transgenic mice; assay: In vivo drug efficacy test: footprint analysis (ambulation); conditions: 22 weeks of age compared with 18 weeks of age, control showed abnormal ambulation
Procedure: (§2) In this test, ALS-SOD1^H46R transgenic mice carrying and expressing ALS1 pathological SOD1 gene (SOD1^H46R) were used. The mice were housed at 23° C. with a 12 hours light/dark cycle. […] Each compound was dissolved in sterilized water, and subsequently an administration solution was prepared with physiological saline. The dose of each compound was 0.01 mg, 0.1 mg and 1 mg/5 ml/kg per body weight of each individual and the compounds were orally administered once per day until an individual dies (compound-administered group). Mice to which physiological saline (5 ml/kg) alone was administered were used as a control group. As an evaluation method for expression of a neurological sign, a balance beam test (a stainless steel bar of 50 cm in length and 0.9 cm in width) was used.
(§3) Each of the mice was subjected to the test and grade 3 was determined as onset of disease. The motor function of the mice in the compound-administered groups and the control group was evaluated based on a vertical pole test and footprint analysis.
Mice of the administered groups and the control group were subject to footprint analysis at 18 weeks and 22 weeks of age. Blue ink and red ink were applied respectively to the front and hind paws of the test mouse and the mouse was then allowed to walk on paper. From the footprint, irregularity of walking was observed. Data was analyzed by use of GraphPad Prism 5 and SPSS 17.0.

[3] = tested on: ALS-SOD1^H46R transgenic mice; assay: In vivo drug efficacy test: survival period after the onset of disease; conditions: for survival period after the onset of disease: control 33.4±3.2 days; for survival benefit versus control group: 0.01, 0.1 and 1 mg/kg orally once per day from onset
Procedure: as §2, §3

[4] = Evaluation of blood-brain barrier permeability (concentration in brain after oral administration, HPLC); format: in vivo; conditions: male C57BL/6N mice, 100 mg/kg once orally, fasting
Procedure: For evaluation of blood-brain barrier permeability, pharmacokinetics (the concentration in brain) in mice was analyzed. In the test, male C57BL/6N mice (at 8 weeks of age) were used. Each compound was suspended in 0.5% sodium carboxymethylcellulose (CMC-Na). The dosage amount was 100 mg/kg per body weight of each mouse. Each compound was administered once orally under fasting conditions. At the time points of 30 minutes and one hour after administration, blood was collected from the heart of each mouse. Subsequently, perfusion was performed using physiological saline containing 10% heparin and thereafter the brain was removed. Serum was obtained by centrifuging the blood sample and brain was lyophilized with liquid nitrogen, both of which were stored at −80° C. until use.
Next, as a pre-treatment for HPLC analysis, deproteinization treatment was performed. Acetonitrile was added to the brain sample and homogenization treatment was performed to grind the brain. The resultant sample was centrifuged (10,000×g, 10 min, 4° C.) and the supernatant was collected, allowed to stand still at −80° C. for 10 minutes, thawed and then centrifuged again (10,000×g, 10 min, 4° C.). The obtained supernatant was dried under vacuum. The vacuum-dried sample was dissolved in a 10 mM phosphate buffer (pH7.0) containing 30-50% acetonitrile, allowed to stand still at −80° C. for 10 minute, thawed again and centrifuged at (10,000×g, 10 min, 4° C.) and the supernatant was collected. Furthermore, filtration treatment by a 0.45 μm filter and centrifugation (10,000×g, 4 min, 4° C.) were performed and subsequently filtration treatment by a 0.22 μm filter and centrifugation (10,000×g, 4 min, 4° C.) were performed. The supernatant was then collected and subjected to HPLC analysis. A standard curve was prepared by using the brain of the same type mouse to which none of the compounds was administered.
as §1
Column: CAPCELL PAK C18, 4.6 mm I.D.×150 mm (SHISEIDO)
Eluate: 10 mM phosphate buffer/acetonitrile (30-50%)
Dilution solution: 10 mM phosphate
buffer/acetonitrile (30-50%)

[5] = tested on: ALS-SOD1^H46R transgenic mice; assay: In vivo drug efficacy test: vertical pole test (motor function); conditions: 21 weeks of age compared with 17 weeks of age, control significantly reduced
Procedure: as §2, §3
The vertical pole test (stainless steel bar of 50 cm in length and 0.9 cm in width was used) was started when the test mice became 17 weeks of age and carried out once a week. Each mouse was given five trials (noted that a maximum value was 45 cm, and when a mouse reached the vertical ascending distance of 45 cm, the trial was terminated at that point). The maximum value of the 5 trials was defined as motor function value.

[6] = tested on: Human neuroblastoma SH-SY5Y cells; assay: Oxidative stress-mediated cell death suppressive (AOSCD) activity in differentiated nerve cells, menadione, AlamarBlue; format: cell-based; conditions: RA-differentiated SH-SY5Y cells, compound 24 hours before menadione, 4 hours oxidative stress treatment, read-out: ED50 (the source's name)
Procedure: A test was performed by using the same compounds as in Test Example 1. Human neuroblastoma SH-SY5Y cells (ATCC, CRL2266 strain) were cultured in DMEM medium (manufactured by Wako Pure Chemical Industries Ltd.) containing 10% FBS, 100 μg/mL streptomycin and 100 U/mL penicillin G. SH-SY5Y cells were suspended in a DMEM/10% FBS medium, seeded in a cell density of 0.75×10^4 cells/well in a 96-well microplate and cultured in the presence of 5% CO2 at 37° C. for 24 hours. Thereafter, the medium was exchanged with DMEM/10% FBS (DMEM/FBS/RA) medium containing 10 μM all-trans-retinoic acid (RA). At the fifth day, each compound was added so as to obtain 2, 4, 6, 8, 10, 20, 30, 40, 50, 60, 80 μM (final concentration) and culture was performed. Note that, in this experiment, a sample in which DMSO alone was added was used as a negative control.
After 24 hours, an oxidative stress agent, menadione, was added so as to obtain a final concentration of 0, 30, 40, 60 and 80 μM and culture was continued in the presence of 5% CO2 at 37° C. (oxidative stress treatment) Cells treated with a 0.1% Triton X-100/DMEM/FBS/RA medium in place of menadione was used as a blank in this assay. After an oxidative stress treatment for 4 hours, the medium was replaced with a medium containing 10% AlamarBlue and culture was performed in the presence of 5% CO2 at 37° C. Twelve hours later, fluorescent was measured at an excitation wavelength of 530 nm/detection wavelength of 580 nm by use of CYTOFLUOR (registered trade mark) Multi-Well Plate Reader Series 4000 to quantify oxidative stress-mediated cell death suppressive (AOSCD) activity. In accordance with a conventional method, ED50 (Effective Dose) (μM) was calculated.

[7] = 0.1 mg/kg orally once per day from onset
[8] = 0.01 mg/kg orally once per day from onset
[9] = 1 mg/kg orally once per day from onset

Row | Structure (SMILES) | solubility at 24 h [1] [µg/mL] | ambulation by footprint analysis [2, 7] | survival period after the onset of disease [3, 8] [days] | survival period after the onset of disease [3, 7] [days] | survival period after the onset of disease [3, 9] [days] | survival benefit versus control group [3] | Amount of blood brain barrier permeation ([4]; 0.5 h after administration) [ng/100 μg] | Amount of blood brain barrier permeation ([4]; 1 h after administration) [ng/100 μg] | motor function by vertical pole test [5, 7] | pEC50 [6] | ambulation by footprint analysis [2, 8] | motor function by vertical pole test [5, 8]
1 | Cc1cc(C)c(O[C@H](C)C(=O)Nc2nc(-c3ccccn3)c[nH]2)c(C)c1 [Compound 10, (2R)-2-(mesityloxy)-N-[4-(pyridin-2-yl)-1H-imidazol-2-yl]propanamide] | 7880 (≈ 22.5 mM) | no significant change of ambulation | 43.7 ± 7.5 | 47.7 ± 6.9 | 41.8 ± 10.5 | significant survival benefit | 256 | 225 | relatively retained | 5.10 |  | 
2 | Cc1cc(C)c(O[C@@H](C)C(=O)Nc2nc(-c3ccccn3)c[nH]2)c(C)c1 [Compound 11, (2S)-2-(mesityloxy)-N-[4-(pyridin-2-yl)-1H-imidazol-2-yl]propanamide] | 7980 (≈ 22.8 mM) |  |  |  |  |  | 478 | 372 |  | 5.40 |  | 
3 | Cc1cc(C)c(OC(C)(C)C(=O)Nc2nc(-c3ccccn3)c[nH]2)c(C)c1 [Compound 12, 2-(mesityloxy)-2-methyl-N-[4-(pyridin-2-yl)-1H-imidazol-2-yl]propanamide] | 3760 (≈ 10.3 mM) |  | 36.2 ± 4.0 | 38.8 ± 4.3 | 41.0 ± 7.9 | significant survival benefit | 258 | 133 |  | 5.40 | no significant change of ambulation | relatively retained
4 | Cc1cc(C)c(N(C)CC(=O)Nc2nc(-c3ccccn3)c[nH]2)c(C)c1 [Compound 14, 2-[mesityl(methyl)amino]-N-[4-(pyridin-2-yl)-1H-imidazol-2-yl]acetamide] | 3070 (≈ 8.79 mM) |  | 44.5 ± 3.4 | 42.2 ± 4.5 | 42.5 ± 2.9 | significant survival benefit | 519 | 370 |  | 5.40 | no significant change of ambulation | relatively retained
5 | Cc1cc(C)c(NCC(=O)Nc2nc(-c3ccccn3)c[nH]2)c(C)c1 [Compound 22, 2-(mesitylamino)-N-(4-pyridin-2-yl-1H-imidazol-2-yl)acetamide] | 1810 (≈ 5.4 mM) |  |  |  |  |  | 108 | 16 |  | 4.68 |  | 
6 | Cc1cc(C)c(OCC(=O)Nc2nc(-c3ccccn3)c[nH]2)c(C)c1 [Compound (Ie), 2-(mesityloxy)-N-[4-(pyridin-2-yl)-1H-imidazol-2-yl]acetamide, reference compound] | 610 (≈ 1.81 mM) |  |  |  |  |  | 27 | 8 |  | 5.22 |  | 
7 | Cc1cc(C)c(OCC(=O)Nc2nc(-c3ccccn3)cs2)c(C)c1 [Compound (X), 2-(mesityloxy)-N-(4-pyridin-2-yl-1,3-thiazol-2-yl)acetamide, reference compound] | 30 (≈ 0.0849 mM) |  |  |  |  |  | 62 | 26 |  | 4.70 |  | 
